Series [1] has as its system patients with multiple manifestations of MetS. The series is described as follows: Treatment comparison of RYGB, Brake or atorvastatin (Lipitor), each added to standard of care (Example 3). It is filed as in vivo, human. Particulars: for LDL percent change: from baseline. The source says: FIG. 20. […] All patients were given 10 gm Brake™ once Daily, orally, 4 hrs prior to their main meal Pertinent demographic and clinical data were retrieved from medical records for all patients, and shown in FIG. 21. Variables included age, gender, body weight, lipid panel (low-density lipoprotein [LDL], high-density lipoprotein [HDL], triglycerides [TG], and total cholesterol [TC]), HbA1c, and liver function tests (aspartate aminotransferase [AST] and alanine aminotransferase [ALT]). Patients were followed monthly for up to one year to assess changes in the above stated variables. […] From the beginning, the patients who began the study with abnormal findings were separated from the patients with initially normal values and those with abnormal findings were further analyzed to define the magnitude of change as well as the percent change from baseline pre-therapy. Descriptive statistics were used in analyzing the baseline characteristics of each cohort. In addition to counts of how many patients had values above threshold, all descriptive characteristics are reported for each group as percentages and mean values, or where appropriate, the binary distribution percentages. […] This testing was applied to case and control cohorts: (a) using data for all treated patients, (b) using data for only those with abnormal range baselines (c) using cases where the initial value was within the normal range for the laboratory. Data were subsequently analyzed for percent change by biomarker from both of these two perspectives. Comparisons between groups were performed by mixed analysis of variances with a post hoc correction for multiple comparisons to analyze differences between treatments. Data are presented as mean±standard deviation (unless otherwise specified). A p<0.05 was considered evidence of significant change. All statistical analyses were conducted using SAS version 9.4 (SAS institute, Cary, N.C.).

The subject of a further series is Hepatitis C virus. Briefly: Hepatitis C patient cases: viral load. It is filed as in vivo, human. Particulars: Patient E1 on combination; words. On the procedure: Case 1: A Hepatitis C Patient with Moderate Viral Load Treated with Brake™ Alone, with the Goal to Evaluate the Secondary Antiviral Impact of Improving the Hepatic Steatosis
Patient M1 was a person with a normal BMI.
They were not on Hepatitis C treatment since 2007; no antiviral drugs in the 3 years prior to Brake™ therapy. Treatment Course: Aphoeline Brake™ (formulation II) was added to their treatment at their second visit.
A Hepatitis C Patient with Combination Treatment of Brake™ and pegIFN/Riba, a Test of the Ability of Combinations to Reduce Viral Load Over that of pegIFN/Riba Alone
After two months with only moderate viral load response to this increased dosage, the patient had the addition of 10 gm per day of Aphoeline Brake™ added to their maximal dose pegIFN/Riba regimen.
Case 3: A Hepatitis C Patient with Advanced Cirrhosis, Treated with Brake™ Alone, a Test of the Ability to Control Hepatic Steatosis in the Face of Minimal Action on the Viral Load
Patient L1 is a Overweight (5′3″ 202 lb) but not overtly T2D […] with Hepatitis C genotype 1a since ˜2002. They had previously been treated with pegIFN/Riba but had been considered a failure in 2005. They have been untreated for Hepatitis C since that time. […] Their bilirubin was 1.5 when seen and they were on the liver transplant list. Their chronic medications included spironolactone, rifaximin, and nexium. […]

The subject of series [2] is metabolic syndrome / cardiovascular risk (FS index, CV index). Briefly: Cross comparison of FS index and CV index in treated patients (Example 2). Type of series: in vivo, human. The note with it: before, at 6 and 12 months, added to SoC; words.
Experimental: Here we compare the same patients using FS index and CV index, in order to establish concordance in the risk scoring. We also include patients with MIs as examples of patients with CV events. For each of these patients, the FS index was calculated and the CV index was calculated, using an electronic spreadsheet designed for this purpose, and with the goal to evaluate concordance in the risk scoring. We also include patients with MIs as examples of patients with CV events.
To assess changes in metabolic syndrome, patient characteristics were analyzed using the FS Index.(44) Briefly, the FS index is a method for assessing cardiovascular risk associated with the glucose supply side in metabolic syndrome and T2D patients. The FS index is obtained from the individual patient's biological parameters, wherein a FS index value of greater than 60 is indicative that the individual is in need of therapy for metabolic syndrome or at risk for at least one cardiovascular complication associated with metabolic syndrome.
In series [3] the test system is ileal brake (PYY, motilin). Particulars: ileal infusions in different amounts; words; cited from earlier work.
Series [4] relates to patients with incident AF. Briefly: Longitudinal cohort study of atrial fibrillation patients with or without warfarin. It is filed as in vivo, human. The note with it: adjusted for age and CHADS2; 95% CI 0.85, 2.13; not statistically significant. As to the method:
We performed a longitudinal, cohort study with pharmacy and medical claims from 1997 to 2008 from a local health maintenance organization. Participants were identified with incident AF irrespective of warfarin status and followed through their duration within the database. Three clinical outcome measures were assessed including stroke, myocardial infarction, and bleeding. A neural net model was developed to identify patients at high risk of clinical event and defined to be an ‘enriched’ patient. The model defines the enrichment based on the top 10 minimum mean square error (MMSE) output parameters that describe the three clinical outcomes. The MMSE ranks the parameters in order from best to worst predictability when modeling the outputs. Predictors and outcome measures were ascertained with cox proportional hazards models.

[5] abbreviates: decline from pre-treatment baseline, added to SoC, FIG. 21.

Where a name gives a salt, the structure may show the parent alone.

The values below come from patent US10624913B2, “Diagnostics and methods for treatment of non-alcoholic hepatic steatosis and hepatic steatohepatitis, and prevention of complications thereof” (VOLANT HOLDINGS GMBH, priority 2011, dated 2020).

For `CC(C)c1c(C(=O)Nc2ccccc2)c(-c2ccccc2)c(-c2ccc(F)cc2)n1CC[C@@H](O)C[C@@H](O)CC(=O)O` (relative stereo) [atorvastatin, [R—(R*,R*)]-2-(4-fluorophenyl)-β,δ-dihydroxy-5-(l-methylethyl)-3-phenyl-4-[(phenylamino)-carbonyl]-1H-pyrrole-1-heptanoic acid; calcium salt (2:1) trihydrate], the Total cholesterol decline in series [1] (abnormal baseline cases, 6 and 12 months of treatment) came out at 3.2%. The Body weight decline in series [1] (at 12 months) was 2.6%. Moreover, in series [1] (setting [5]), the ALT decline result is recorded as “essentially no decline”, the AST decline turned out to be 3.5% and the Triglyceride concentration decline is listed as 18%. Also, the HDL values entry in series [1] (high dose (40 mg) atorvastatin alone, words) is reported as “decreased”. For the same compound, the LDL percent change in series [1] (high dose (40 mg) atorvastatin, FIG. 21) was −22.7%. In addition, in series [1] (low dose atorvastatin, FIG. 21), the LDL percent change is −10.1%. Besides, the HDL values entry in series [1] (low dose atorvastatin, words) is reported as “increased”. The “Changes baseline to post treatment in triglycerides” value in series [1] (words) is recorded as “negligible”. Moreover, the “Changes in ALT and AST over pre treatment baseline” value in series [1] (words, atorvastatin 10 mg or 40 mg) is on record as “Only minor changes”.
Consider `COc1cc(/C=C/C(=O)CC(=O)/C=C/c2ccc(O)c(OC)c2)ccc1O` [curcumin], for which the “Hepatitis C virus status / control of viral load” value in the series with Hepatitis C virus was “loss of control for viral load”.
With `CN(C)C(=N)N=C(N)N` [metformin], the “Changes in FS index over pre-treatment baseline” value in series [2] is reported as “did not change the FS index”.
For the compound `CCCCCCCC/C=C\CCCCCCCC(=O)O` [oleic acid], in series [3], the PYY levels entry is on record as “dose-dependent increase” and the motilin levels result is given as “borderline decrease”.
For the compound `CC(=O)CC(c1ccccc1)c1c(O)c2ccccc2oc1=O` (stereo not shown) [warfarin], the “risk of negative clinical outcomes (aHR)” value in series [4] is given as 1.35.
